The values below come from patent publication US5408036A, “Isolated metallopolypeptide: compositions and synthetic methods” (The Scripps Research Institute, priority 1993, dated 1995).

A word on the Kd: it is a measure of binding affinity in units of concentration. As a reminder, the solubility is how much of the substance goes into solution per volume. Higher therefore signals much dissolved substance.

The nature of data set [1]: CD titration: dependence of [θ]222 on free metal ion concentration, ZnCl2. The class given is binding. Conditions: for effect of Zn(II) on helical content: CD analysis, ZnCl2. An excerpt: (§1) FIG. 4 illustrates the dependence of mean residue molar ellipticity at 222 nm ([.THETA.]222 ×10^-3) of peptides SEQ ID NO's:2 AND 3 on the concentration of free metal ions when measured as described in Example 3A(2).
(§2) The peptide metal salt solution admixtures prepared as in Example 2A were subjected to CD analyses according to published procedures to measure the degree of stability induced by metal ion complexation with peptides. Greenfield et al., Biochem, 8:4108 (1969) and Johnson, Ann. Rev. Biophvs. Chem., 17:145 (1988). All CD data reported herein have an uncertainty of ±2 to 5% for a 100% helix, [θ]222 =-35,000, and are based on several CD measurements of both peptides SEQ ID NO's:2 and 3 in the presence and absence of metal ions in various TFE/H20 mixtures at -10° to 20° C.
(§3) Both Cu(II) and Zn(II) bound peptide SEQ ID NO:3 with similar affinities and increased the helical content to the same extent.

Data set [2] is described as follows: CD titration: dependence of [θ]222 on free metal ion concentration, CdCl2. The class given is binding. As to conditions: 21° C.
Excerpt: as §1, §2, §3

Data set [3] can be described thus: Circular dichroism (CD) to measure degree of secondary structure (alpha-helicity). The class given is physicochemical. Conditions: for dependence of helicity on added NaF: NaF up to 250 mM, 5 mM sodium borate; for dependence of CD spectra on peptide concentration: presence and absence of metal ions, 0.5-70 μM. Here is the method:
ID No's. 3 and 4. The analysis was performed as described above.
Proton nuclear magnetic resonance spectra were recorded at 300MHz on Bruker AM300 spectrometer and are reported in parts per million (ppm) downfield from Me4 Si. Ultraviolet-visible spectra were recorded on Aviv Associates 14DS and Milton Roy Spectronic 3000 Array spectrometers. Circular dichroism measurements were made on Aviv Associates 62DS spectrometer equipped with a thermostable cell holder using 10, 1, and 0.1 mm Hellma quartz cells. All reported CD data have an uncertainty of ±2-5%. All ellipticity measurements are expressed as mean residue ellipticity, [θ], having the units deg·cm^2 ·dmol-^1.
(Circular dichroism is the unequal absorption of left and right circularly polarised light.)

Data set [4] in a line: Metal ion selectivity and relative affinities by CD analysis. The class given is binding. The text has this: Metal ion selectivity is an expected consequence of site specific metal-ligand interaction. The extent of helical induction, to a first approximation, depends on the affinity of metal ion toward the ligands employed, and on the compatibility of metal ion geometry and coordination sphere with the alpha-helical conformation. Thus, although numerous metal ions can induce and stabilize alpha-helix formation, the metal ion having the greatest relative affinity for the ligands employed is preferred and can readily be determined. […]
Peptides, prepared as in Example 1, and admixed with various metal salt solutions as described in Example 2B, were subjected to CD analysis to characterize metal ion selectivity with respect to the position of the metal binding site in the alpha-helical sequence.

Data set [5] in a line: CD titration: dependence of [θ]222 on free metal ion concentration, CuCl2. The class given is binding. As to conditions: CuCl2, pH 5.3; peptide 6.1×10^-5 M in 5 mM sodium borate, 21° C.
Excerpt: as §1, §2, §3

Data set [6] in a line: CD titration: dependence of [θ]222 on free metal ion concentration, NiCl2. The class given is binding. As to conditions: NiCl2, pH 6.3; peptide 6.1×10^-5 M in 5 mM sodium borate, 21° C.
Excerpt: as §1, §2, §3

Data set [7] in a line: Heat denaturation assay to measure melting temperatures. The class given is physicochemical. The protocol: In order to assess differences in helix stability between the metal ion complexed and uncomplexed forms of peptides Seq. ID No's. 3 and 4, the conformational stability of each peptide in the presence and absence of transition metal ions was determined from heat denaturation studies according to published procedures. Pace et al., In Protein structure, p. 311., IRL Press, (1989). The analysis of the thermal denaturation curves afforded linear ΔG vs. T and van't Hoff plots. […] Complexed peptides Seq. ID No's.
Because tris-bipyridyl-metal ion coordination complexes are chiral and can form either a left-handed or a right-handed helix, two diastereomeric tri-helical structures can possibly be formed. The stereogenic environment of the ensuing parallel tri-helical topology as well as the geometrical constraints imposed by the overall C3 symmetry of the coordination complex was expected, however, to enforce a high degree of diastereoselectivity in the assembly process. The CD spectrum (in the region of 280 and 330 nm) of the peptide in the presence of Ni(II) indicated the formation of one diastereomer having a left-handed helical configuration. Such a behavior is also consistent with the expected left handed supercoil of the tri-helical metallopolypeptide. The analysis of the thermal denaturation curves for the metallopolypeptide in the presence of Ni(II) yielded linear ΔG vs T and van't Hoff plots.

Data set [8] is described as follows: Aqueous solubility of the peptide. The class given is physicochemical. Here is the method: The peptide, in the absence of a metal ion, was readily soluble (up to about 2 mg/ml, 1.3 mM) in aqueous media at a pH value of from about 4 to about 9.
Data set [9] can be described thus: Concentration dependence of ellipticity at 222 nm, monomer-nmer equilibria. The class given is physicochemical. Conditions: absence of added metal ions; nonlinear regression MINSQ. The protocol:
Data (Δ) were analyzed according to monomer-.eta.mer equilibria using the equation below, where Pn, Pmon, and PT are the self-associated, monomeric, and total concentrations of the peptides, respectively, n is the degree of association, θmon is the ellipticity of the monomer, and θn is the ellipticity of the self-associated form of the peptide. The values of n=1.95, θmon =-10,100, θn =-27,900, and Kdiss =6.4×10^-4 were determined by the nonlinear regression program MINSQ. [formula]

Data set [10] in a line: Absorption spectroscopy pH profile of Ru(III)-peptide complexes. The class given is physicochemical. Conditions: from absorption data vs pH. An excerpt:
The Ru(III)-peptide SEQ ID NO:3 complex prepared as in Example 2B was subjected to absorption spectroscopy to further confirm the formation of a metallopeptide complex.
The pronounced shift in absorption maxima with increasing pH value is consistent with the behavior of the Ru(III) ions containing coordinated imidazoles and is attributed to N-H deprotonation at the "pyrrole nitrogen", Sunberg et al., J. Am. Chem. Soc., 96:381 (1974). […] The spectral similarity with the simple ruthenium(III)imidazole complexes and the characteristically facile metal-ion promoted imidazole NH ionization provide further support for the formation of the metallopeptide complex.

The mark [11] stands for this setting: with CdCl2 (solution 8, 7.3×10^-4 M), water, 4° C.
Where [12] appears, read: in the presence of Cu(II) ions (CuSO4, solution 13) at 0° C.
Setting [13] is: Ni(II) or Co(II) ions plus 150 mM NaCl.
Where [14] appears, read: absence of any polyvalent metal ion, 7.4 μM in 5 mM sodium borate, pH 6.4, 21° C.
Where [15] appears, read: presence of Ni(II) or Co(II) ions, similar conditions (5 mM sodium borate, pH 6.4, 21° C.).

Where “and” joins values, the source holds several entries; their conditions need not be identical. Equal entries are not always repeated. Residues, ends and D or L forms follow the SMILES beside them. No end group written: not given here. *: point of attachment. 5‑carboxyl‑2,2'‑bipyridine = O=C(c1ccc(-c2ccccn2)nc1)*

As for `CC(=O)N[C@@H](C)C(=O)N[C@@H](CCC(=O)O)C(=O)N[C@@H](C)C(=O)N[C@@H](C)C(=O)N[C@@H](C)C(=O)N[C@@H](CCCCN)C(=O)N[C@@H](CCC(=O)O)C(=O)N[C@@H](C)C(=O)N[C@@H](C)C(=O)N[C@@H](C)C(=O)N[C@@H](CCCCN)C(=O)N[C@@H](CS)C(=O)N[C@@H](C)C(=O)N[C@@H](C)C(=O)N[C@@H](C)C(=O)N[C@@H](Cc1c[nH]cn1)C(=O)N[C@@H](C)C(N)=O` [peptide SEQ ID NO:2, Ac--Ala--Glu--Ala--Ala--Ala--Lys--Glu--Ala--Ala--Ala--Lys--Cys--Ala--Ala--Ala--His--Ala--CONH2] (Ac-AEAAAKEAAAKCAAAHA-NH2), the “effect of Zn(II) on helical content” value in data set [1] was “no effect”. Further, binding in [2] (CdCl2, pH 8.0, peptide 5.9×10^-6M in 10 mM sodium borate, 0.5 mM mercaptoethanol) was put at a Kd of 56 µM. In [3], the “dependence of helicity on added NaF” value is recorded as “independent of concentration of added NaF up to 250 mM” and the “dependence of CD spectra on peptide concentration” value was “independent of the peptide concentration”. The alpha-helicity in [3] (absence of metal ion (solution 7), water pH 6.65, 4° C.) is recorded as 54%. Further, in data set [3] (setting [11]), the alpha-helicity entry is recorded as “up to 90%” and the “θ222” value is reported as -31,500. The metal ion selectivity entry in data set [4] (CD analysis, CdCl2 vs ZnCl2) is recorded as “Cd(II) selective”. Moreover, the “metal ion(s) that preferentially stabilize the peptide” value in [4] (summary of Example 3A(2), 3A(3)) was “Cu(II) and Zu(II)”.
Turning to `CC(=O)N[C@@H](C)C(=O)N[C@@H](CCC(=O)O)C(=O)N[C@@H](C)C(=O)N[C@@H](C)C(=O)N[C@@H](C)C(=O)N[C@@H](CCCCN)C(=O)N[C@@H](CCC(=O)O)C(=O)N[C@@H](C)C(=O)N[C@@H](C)C(=O)N[C@@H](C)C(=O)N[C@@H](CCCCN)C(=O)N[C@@H](Cc1c[nH]cn1)C(=O)N[C@@H](C)C(=O)N[C@@H](C)C(=O)N[C@@H](C)C(=O)N[C@@H](Cc1c[nH]cn1)C(=O)N[C@@H](C)C(N)=O` [peptide SEQ ID NO:3, Ac--Ala--Glu--Ala--Ala--Ala--Lys--Glu--Ala--Ala--Ala--Lys--His--Ala--Ala--Ala--His--Ala--CONH2] (Ac-AEAAAKEAAAKHAAAHA-NH2), the Kd is 66 µM in [5]; 210 µM in data set [6]; 75 µM in [1] (ZnCl2, pH 7.5, peptide 6.1×10^-5 M in 5 mM sodium borate, 21° C.); 220 µM in [2] (CdCl2, pH 7.5, peptide 6.1×10^-5 M in 5 mM sodium borate). Moreover, in data set [1], the “effect of Zn(II) on helical content” value is “considerable helical induction”. For the same compound, the “melting temperature (Tm)” value in data set [7] worked out at 11 °C. Further, the “dependence of helicity on added NaF” value in [3] is given as “independent of concentration of added NaF up to 250 mM”. Also, the figures for the alpha-helicity entry in [3] (setting [12]) and in data set [3] (room temperature in water) were “about 90%” and 45%, respectively. Also, the entries for the “θ222” value in data set [3] (setting [12]) and in [3] (room temperature in water) were -31,100 and -16,600, respectively. Further, in data set [3], the “dependence of CD spectra on peptide concentration” value was “independent of the peptide concentration”. Besides, in [4] (CD analysis, peptide SEQ ID NO:11 at pH 6.0), the “metal ions bound, order of affinity” value was “Ni(II), Cd(II), Cu(II) and Zn(II) in descending order of affinity”.
Take `CC[C@H](C)[C@H](NC(=O)[C@H](Cc1ccc(O)cc1)NC(=O)[C@@H](NC(=O)[C@H](Cc1c[nH]cn1)NC(=O)CNC(=O)[C@@H]1CCCN1C(=O)[C@H](Cc1c[nH]cn1)NC(=O)[C@@H](NC(=O)[C@H](CO)NC(=O)[C@H](CC(C)C)NC(=O)[C@H](CS)NC(C)=O)C(C)C)[C@@H](C)O)C(=O)N[C@@H](CCC(N)=O)C(=O)N[C@@H](CS)C(N)=O` [peptide SEQ ID NO:19] (Ac-CLSVHPGHTYIQC-NH2): in [8] (aqueous media, water, absence of a metal ion, pH about 4 to about 9), the solubility was ≥ 2000 µg/mL and ≥ 1300 µM. The “decrease of aqueous solubility in the presence of Zn” value in [8] (pH values greater than about 5.0) is “about 100 fold”. The “CD spectrum, structure indicated” value is recorded as “random-coiled structure” in data set [3] (absence of added Zn, about 6.0×10^-6 M in Na borate, pH 7.5) and “beta-turn structure” in [3] (one equivalent of Zn added).
On to “-Gly-Glu-Leu-Ala-Glu-Gln-Lys-Leu-Glu-Gln-Ala-Leu-Gln-Lys-Leu-Ala ({5‑carboxyl‑2,2'‑bipyridine}-GELAEQKLEQALQKLA) [peptide of Example 4]”, for which, in data set [9], the “θmon, ellipticity of the monomer” value is reported as -10,100 and the “θn, ellipticity of the self-associated form” value was -27,900. Besides, in [3] (setting [13]), the alpha-helicity is 80% and the θ222 is reported as -25,800 deg·cm2·dmol^-1. In data set [3] (setting [14]), the alpha-helicity stood at 30% and the θ222 is recorded as -10,000 deg·cm^2·dmol^-1. Further, in data set [3] (setting [15]), the alpha-helicity result is given as “greater than 70%” and the θ222 is given as -23,400 degcm^2 dmol^-1.
Take “Ru(III)-peptide SEQ ID NO:4 complex: exchange-inert macrocyclic cis-[Ru(NH3)4 (L)2 ]^3+ complex of peptide SEQ ID NO:4 through two His residues at i and i+4 (AEAAAKHAAAHEAAAKA; Ru(III) tetraammine macrocyclic complex via two His)”: the “melting temperature (Tm)” value in data set [7] came to 9.5 °C. In data set [3] (room temperature in water), the alpha-helicity came to 50% and the θ222 was -17,300. In data set [10], the “pKa of the imidazole NH of the coordinated histidine” value came to 7.5.
